Assay results from patent publication US20050113337A1, “Enhancement of oral bioavailability of non-emulsified formulations of prodrug esters with lecithin” (TAP Pharmaceutical Products, Inc., priority 2001, published 2005).

Tests used:
[1] = system: Carboxylesterase from porcine liver; test: Esterase degradation of cefditoren pivoxil; format: in vitro ADME; details: 20 minutes, 37° C.; for amount of cefditoren pivoxil remaining: esterase; for % cefditoren pivoxil remaining: simulated intestinal fluid
Procedure: First, a test was performed to determine whether cefditoren pivoxil is degraded by esterase. 25 mg of cefditoren pivoxil (available from Meiji Saika Kaisha Ltd of Japan) was dissolved in 100 ml of an aqueous solution containing 10% dimethylsulfoxide and 0.1 N. hydrochloric acid to make up an 0.25 mg/ml solution. Carboxylesterase (also referred to as esterase herein) from porcine liver (15 mg protein/ml, 250 units/mg protein, available from Sigma-Aldrich) was dissolved in simulated intestinal fluid (SIF having no added pancreatin, available from Sigma-Aldrich) to make up a solution having 0.5 units/ml.
2 ml of the cefditoren pivoxil solution was then mixed with 2 ml of the esterase solution and 2 ml of simulated intestinal fluid. This mixture was allowed to react for 20 minutes at 37° C. and then the reaction was quenched with 1.0 ml of acetonitrile. This procedure was repeated with esterase at two other concentrations.
The experimental procedure was as described above, except that the cefditoren pivoxil was dissolved in 3% lecithin (LECI-PC 35 P, available from Traco Labs of IL).
The amount of cefditoren pivoxil remaining in each of the samples was determined by HPLC, and compared to the amount of cefditoren pivoxil of a control solution. The control solution was 2.0 ml cefditoren pivoxil, 2.0 ml of 10% modified lecithin solution and 2.0 ml simulated intestinal fluid incubated and then quenched as above.

[2] = Solubility of cefditoren pivoxil in lecithin dispersions; format: physicochemical
Procedure: The solubility of cefditoren pivoxil in various lecithins was determined as follows. Three types of lecithin were tested: lecithin (LECI-PC 35P available from Traco Labs, IL), modified lecithin (containing 70% maltodextrin and 30% phosphatidyl choline; ALCOLEC SM 100 available from American Lecithin Inc. of CT) and hydroxylated lecithin (CENTROLENE A, available from Central Soya, IN). 5%, 10% and 15% suspensions of each type of lecithin were made up in distilled deionized water to form the test dispersions. Cefditoren pivoxil (available from Meiji Saika Kaisha Ltd of Japan) was added to each test dispersion. Each sample was vortexed for one minute, sonicated for two minutes, vortexed again for one minute and then centrifuged at 2000 rpm for ten minutes at room temperature. The resulting supernatant fraction was collected, filtered through a 0.45 μm filter and analyzed by HPLC.

cefditoren pivoxil
amount of cefditoren pivoxil remaining ([1]; cefditoren pivoxil dissolved in 3% lecithin (LECI-PC 35 P)): 57.4% | amount of cefditoren pivoxil remaining ([1]; control (non-lecithin containing) solution): 7% | % cefditoren pivoxil remaining ([1]; esterase concentration 0.05 units/ml): 81.9% | % cefditoren pivoxil remaining ([1]; esterase concentration 0.5 units/ml): 4.5% | % cefditoren pivoxil remaining ([1]; esterase concentration 5 units/ml): 0.3% | solubility ([2]; in aqueous lecithin solution (LECI-PC 35P)): 678.5 µg/mL | solubility ([2]; in hydroxylated lecithin (CENTROLENE A)): 715.0 µg/mL | solubility ([2]; in modified lecithin (ALCOLEC SM 100)): 868.1 µg/mL | solubility ([2]; in water alone): 31.8 µg/mL
